ChEMBL document CHEMBL5723582, “Data for DCP probe T-10430” (2024)

Tests used:
Conditions in all cases: Compound concentration 1.0 uM
[1] = biological target: Probable G-protein coupled receptor 27 (Homo sapiens) (UniProt Q9NS67); assay: RLU of GPR27 at 1.0 µM in the […] PRESTO-Tango GPCRome screen
[2] = biological target: Growth hormone secretagogue receptor type 1 (Homo sapiens) (UniProt Q92847); assay: RLU of GHSR at 1.0 µM in the […] PRESTO-Tango GPCRome screen
[3] = biological target: 5-hydroxytryptamine receptor 1B (Homo sapiens) (UniProt P28222); assay: RLU of HTR1B at 1.0 µM in the Aequorin PRESTO-Tango GPCRome screen
[4] = biological target: Neuropeptide Y receptor type 1 (Homo sapiens) (UniProt P25929); assay: RLU of NPY1R at 1.0 µM in the […] PRESTO-Tango GPCRome screen
Sequence of Neuropeptide Y receptor type 1 (Homo sapiens) (P25929 whole entry): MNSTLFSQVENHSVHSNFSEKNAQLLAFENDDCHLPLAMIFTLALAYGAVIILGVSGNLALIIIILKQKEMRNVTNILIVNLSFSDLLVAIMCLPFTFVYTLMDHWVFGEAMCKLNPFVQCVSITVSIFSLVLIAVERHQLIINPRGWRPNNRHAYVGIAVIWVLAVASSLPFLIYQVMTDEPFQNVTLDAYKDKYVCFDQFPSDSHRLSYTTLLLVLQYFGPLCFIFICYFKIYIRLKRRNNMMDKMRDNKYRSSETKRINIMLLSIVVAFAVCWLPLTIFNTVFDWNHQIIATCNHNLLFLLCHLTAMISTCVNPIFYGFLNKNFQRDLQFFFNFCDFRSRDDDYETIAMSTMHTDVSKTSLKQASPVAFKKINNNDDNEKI

[5] = biological target: Neuromedin-B receptor (Homo sapiens) (UniProt P28336); assay: RLU of NMBR at 1.0 µM in the […] PRESTO-Tango GPCRome screen
[6] = biological target: Motilin receptor (Homo sapiens) (UniProt O43193); assay: RLU of MLNR at 1.0 µM in the […] PRESTO-Tango GPCRome screen
[7] = biological target: Somatostatin receptor type 2 (Homo sapiens) (UniProt P30874); assay: RLU of SSTR2 at 1.0 µM in the […] PRESTO-Tango GPCRome screen
Sequence of Somatostatin receptor type 2 (Homo sapiens) (P30874 whole entry): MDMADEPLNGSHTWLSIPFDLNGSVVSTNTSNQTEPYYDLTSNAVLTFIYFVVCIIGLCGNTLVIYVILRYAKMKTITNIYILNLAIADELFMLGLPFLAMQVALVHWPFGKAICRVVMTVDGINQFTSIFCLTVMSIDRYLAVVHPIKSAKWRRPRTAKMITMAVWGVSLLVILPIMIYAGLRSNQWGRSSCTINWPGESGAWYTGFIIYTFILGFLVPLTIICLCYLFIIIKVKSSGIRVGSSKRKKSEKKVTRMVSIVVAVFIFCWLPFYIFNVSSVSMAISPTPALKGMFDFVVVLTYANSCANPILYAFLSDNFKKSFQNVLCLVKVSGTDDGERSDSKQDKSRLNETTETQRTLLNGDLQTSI

[8] = biological target: 5-hydroxytryptamine receptor 2A (Homo sapiens) (UniProt P28223); assay: RLU of HTR2A at 1.0 µM in the […] PRESTO-Tango GPCRome screen
Sequence of 5-hydroxytryptamine receptor 2A (Homo sapiens) (P28223 whole entry): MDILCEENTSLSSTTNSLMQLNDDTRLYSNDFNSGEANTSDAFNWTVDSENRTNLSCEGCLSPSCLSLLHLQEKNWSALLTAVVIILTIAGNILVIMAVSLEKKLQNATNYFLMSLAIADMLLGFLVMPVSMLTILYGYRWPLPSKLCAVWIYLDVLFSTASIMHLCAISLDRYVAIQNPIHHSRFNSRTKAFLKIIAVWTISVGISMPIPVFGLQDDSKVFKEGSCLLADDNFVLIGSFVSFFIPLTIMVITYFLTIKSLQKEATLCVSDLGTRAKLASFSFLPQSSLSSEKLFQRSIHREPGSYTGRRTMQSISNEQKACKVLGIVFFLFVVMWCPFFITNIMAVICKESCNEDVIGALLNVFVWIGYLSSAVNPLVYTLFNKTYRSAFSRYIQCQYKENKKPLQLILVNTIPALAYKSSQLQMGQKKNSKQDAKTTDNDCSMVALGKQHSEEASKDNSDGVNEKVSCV

[9] = biological target: Neuropeptide FF receptor 2 (Homo sapiens) (UniProt Q9Y5X5); assay: RLU of NPFF2 at 1.0 µM in the […] PRESTO-Tango GPCRome screen
[10] = biological target: Neuropeptide Y receptor type 4 (Homo sapiens) (UniProt P50391); assay: RLU of NPY4R at 1.0 µM in the […] PRESTO-Tango GPCRome screen
[11] = biological target: Adenosine receptor A2a (Homo sapiens) (UniProt P29274); assay: RLU of ADORA2A at 1.0 µM in the […] PRESTO-Tango GPCRome screen
[12] = biological target: Metabotropic glutamate receptor 1 (Homo sapiens) (UniProt Q13255); assay: RLU of GRM1 at 1.0 µM in the Aequorin PRESTO-Tango GPCRome screen
[13] = biological target: Metabotropic glutamate receptor 7 (Homo sapiens) (UniProt Q14831); assay: RLU of GRM7 at 1.0 µM in the Aequorin PRESTO-Tango GPCRome screen
[14] = biological target: Oxytocin receptor (Homo sapiens) (UniProt P30559); assay: RLU of OXTR at 1.0 µM in the […] PRESTO-Tango GPCRome screen
[15] = biological target: Trace amine-associated receptor 8 (Homo sapiens) (UniProt Q969N4); assay: RLU of TAAR8 at 1.0 µM in the […] PRESTO-Tango GPCRome screen
[16] = biological target: C-C chemokine receptor type 8 (Homo sapiens) (UniProt P51685); assay: RLU of CCR8 at 1.0 µM in the […] PRESTO-Tango GPCRome screen
[17] = biological target: Lysophosphatidic acid receptor 5 (Homo sapiens) (UniProt Q9H1C0); assay: RLU of LPAR5 at 1.0 µM in the […] PRESTO-Tango GPCRome screen
[18] = biological target: Muscarinic acetylcholine receptor M2 (Homo sapiens) (UniProt P08172); assay: RLU of CHRM2 at 1.0 µM in the […] PRESTO-Tango GPCRome screen
[19] = biological target: C3a anaphylatoxin chemotactic receptor (Homo sapiens) (UniProt Q16581); assay: RLU of C3AR1 at 1.0 µM in the […] PRESTO-Tango GPCRome screen
[20] = biological target: Alpha-1D adrenergic receptor (Homo sapiens) (UniProt P25100); assay: RLU of ADRA1D at 1.0 µM in the […] PRESTO-Tango GPCRome screen
Sequence of Alpha-1D adrenergic receptor (Homo sapiens) (P25100 whole entry): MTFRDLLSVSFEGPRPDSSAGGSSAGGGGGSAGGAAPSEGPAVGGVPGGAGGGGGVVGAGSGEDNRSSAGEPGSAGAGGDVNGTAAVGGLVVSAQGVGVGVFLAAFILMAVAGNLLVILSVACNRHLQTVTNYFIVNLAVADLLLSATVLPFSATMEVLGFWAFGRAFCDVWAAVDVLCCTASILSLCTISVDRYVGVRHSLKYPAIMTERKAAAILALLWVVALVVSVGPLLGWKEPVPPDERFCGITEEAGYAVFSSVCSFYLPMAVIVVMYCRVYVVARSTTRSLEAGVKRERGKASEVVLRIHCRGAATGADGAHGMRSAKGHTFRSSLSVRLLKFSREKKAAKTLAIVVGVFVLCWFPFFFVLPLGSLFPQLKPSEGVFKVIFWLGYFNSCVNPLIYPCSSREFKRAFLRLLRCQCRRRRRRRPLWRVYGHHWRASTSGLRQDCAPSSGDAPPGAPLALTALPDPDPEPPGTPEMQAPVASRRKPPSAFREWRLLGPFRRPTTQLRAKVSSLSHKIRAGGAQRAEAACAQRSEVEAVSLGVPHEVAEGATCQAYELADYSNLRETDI

[21] = biological target: Lysophosphatidic acid receptor 4 (Homo sapiens) (UniProt Q99677); assay: RLU of LPAR4 at 1.0 µM in the […] PRESTO-Tango GPCRome screen
[22] = biological target: Leukotriene B4 receptor 1 (Homo sapiens, UniProt Q15722); assay: RLU of LTB4R at 1.0 µM in the […] PRESTO-Tango GPCRome screen
[23] = biological target: Histamine H1 receptor (Homo sapiens) (UniProt P35367); assay: RLU of HRH1 at 1.0 µM in the Aequorin PRESTO-Tango GPCRome screen
[24] = biological target: G-protein coupled receptor 182 (Homo sapiens) (UniProt O15218); assay: RLU of GPR182 at 1.0 µM in the […] PRESTO-Tango GPCRome screen
Sequence of G-protein coupled receptor 182 (Homo sapiens) (O15218 whole entry): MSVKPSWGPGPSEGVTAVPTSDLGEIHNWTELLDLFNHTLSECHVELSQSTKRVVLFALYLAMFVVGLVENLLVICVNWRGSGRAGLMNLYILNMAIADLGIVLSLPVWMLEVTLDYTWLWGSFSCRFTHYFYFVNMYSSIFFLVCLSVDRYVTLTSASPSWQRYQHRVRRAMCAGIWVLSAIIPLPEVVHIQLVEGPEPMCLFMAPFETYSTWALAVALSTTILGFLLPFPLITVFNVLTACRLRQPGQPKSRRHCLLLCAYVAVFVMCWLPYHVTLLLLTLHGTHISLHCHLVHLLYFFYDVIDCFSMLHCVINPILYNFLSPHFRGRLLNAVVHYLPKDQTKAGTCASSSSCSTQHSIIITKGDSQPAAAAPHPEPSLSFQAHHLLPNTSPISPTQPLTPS

[25] = biological target: G-protein coupled receptor 84 (Homo sapiens) (UniProt Q9NQS5); assay: RLU of GPR84 at 1.0 µM in the […] PRESTO-Tango GPCRome screen
[26] = biological target: G-protein coupled receptor 3 (Homo sapiens) (UniProt P46089); assay: RLU of GPR3 at 1.0 µM in the […] PRESTO-Tango GPCRome screen
Sequence of G-protein coupled receptor 3 (Homo sapiens) (P46089 whole entry): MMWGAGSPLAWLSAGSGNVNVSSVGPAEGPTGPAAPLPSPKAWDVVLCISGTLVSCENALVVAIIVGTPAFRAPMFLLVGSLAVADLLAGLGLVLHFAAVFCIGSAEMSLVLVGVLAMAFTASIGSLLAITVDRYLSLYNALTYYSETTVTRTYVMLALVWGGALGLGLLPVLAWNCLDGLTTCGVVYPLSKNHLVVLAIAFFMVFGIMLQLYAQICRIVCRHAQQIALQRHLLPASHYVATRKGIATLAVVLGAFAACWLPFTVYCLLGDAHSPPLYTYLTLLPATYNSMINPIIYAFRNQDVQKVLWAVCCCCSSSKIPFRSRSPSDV

[27] = biological target: Prolactin-releasing peptide receptor (Homo sapiens) (UniProt P49683); assay: RLU of PRRP at 1.0 µM in the […] PRESTO-Tango GPCRome screen
[28] = biological target: C-X-C chemokine receptor type 1 (Homo sapiens) (UniProt P25024); assay: RLU of CXCR1 at 1.0 µM in the […] PRESTO-Tango GPCRome screen
[29] = biological target: Neuropeptides B/W receptor type 1 (Homo sapiens) (UniProt P48145); assay: RLU of NPBW1 at 1.0 µM in the […] PRESTO-Tango GPCRome screen
[30] = biological target: Adhesion G protein-coupled receptor D2 (Homo sapiens) (UniProt Q7Z7M1); assay: RLU of GPR144 at 1.0 µM in the […] PRESTO-Tango GPCRome screen
[31] = biological target: 5-hydroxytryptamine receptor 7 (Homo sapiens) (UniProt P34969); assay: RLU of HTR7 at 1.0 µM in the […] PRESTO-Tango GPCRome screen
Sequence of 5-hydroxytryptamine receptor 7 (Homo sapiens) (P34969 whole entry): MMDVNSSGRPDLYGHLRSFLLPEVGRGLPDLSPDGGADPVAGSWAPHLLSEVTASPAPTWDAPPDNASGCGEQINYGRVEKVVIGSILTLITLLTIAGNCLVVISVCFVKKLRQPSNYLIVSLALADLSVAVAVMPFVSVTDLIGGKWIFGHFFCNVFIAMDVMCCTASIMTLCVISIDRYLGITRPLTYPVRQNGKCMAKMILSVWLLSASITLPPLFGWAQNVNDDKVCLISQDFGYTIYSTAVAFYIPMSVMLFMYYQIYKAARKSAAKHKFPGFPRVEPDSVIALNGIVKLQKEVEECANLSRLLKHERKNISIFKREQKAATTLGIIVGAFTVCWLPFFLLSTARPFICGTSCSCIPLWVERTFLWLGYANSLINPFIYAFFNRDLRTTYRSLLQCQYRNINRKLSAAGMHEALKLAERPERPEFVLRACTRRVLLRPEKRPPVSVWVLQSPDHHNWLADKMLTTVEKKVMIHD

[32] = biological target: Probable G-protein coupled receptor 19 (Homo sapiens) (UniProt Q15760); assay: RLU of GPR19 at 1.0 µM in the […] PRESTO-Tango GPCRome screen
[33] = biological target: Adrenocorticotropic hormone receptor (Homo sapiens) (UniProt Q01718); assay: RLU of MC2R at 1.0 µM in the […] PRESTO-Tango GPCRome screen
[34] = biological target: Relaxin receptor 1 (Homo sapiens) (UniProt Q9HBX9); assay: RLU of RXFP1 at 1.0 µM in the […] PRESTO-Tango GPCRome screen
Sequence of Relaxin receptor 1 (Homo sapiens) (Q9HBX9 whole entry): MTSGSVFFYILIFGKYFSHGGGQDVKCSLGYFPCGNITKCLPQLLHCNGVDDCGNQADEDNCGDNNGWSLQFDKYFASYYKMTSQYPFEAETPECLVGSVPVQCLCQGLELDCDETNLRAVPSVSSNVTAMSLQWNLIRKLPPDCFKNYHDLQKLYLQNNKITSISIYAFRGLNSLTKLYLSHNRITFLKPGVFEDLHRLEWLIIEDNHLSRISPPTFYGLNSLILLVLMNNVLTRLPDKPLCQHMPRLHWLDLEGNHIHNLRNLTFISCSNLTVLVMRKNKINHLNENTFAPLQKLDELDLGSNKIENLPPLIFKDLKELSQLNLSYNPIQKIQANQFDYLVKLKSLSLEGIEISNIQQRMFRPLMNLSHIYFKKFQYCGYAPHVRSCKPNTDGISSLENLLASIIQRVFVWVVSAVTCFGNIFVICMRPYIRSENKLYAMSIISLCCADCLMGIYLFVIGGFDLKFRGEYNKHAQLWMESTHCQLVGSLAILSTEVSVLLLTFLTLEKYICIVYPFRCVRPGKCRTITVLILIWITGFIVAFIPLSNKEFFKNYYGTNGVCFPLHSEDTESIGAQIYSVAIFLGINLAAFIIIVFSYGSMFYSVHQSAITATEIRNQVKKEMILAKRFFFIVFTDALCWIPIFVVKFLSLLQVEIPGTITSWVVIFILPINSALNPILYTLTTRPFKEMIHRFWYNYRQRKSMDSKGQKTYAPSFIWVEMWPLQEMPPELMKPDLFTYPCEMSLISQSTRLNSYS

[35] = biological target: G-protein coupled receptor 171 (Homo sapiens) (UniProt O14626); assay: RLU of GPR171 at 1.0 µM in the […] PRESTO-Tango GPCRome screen
Sequence of G-protein coupled receptor 171 (Homo sapiens) (O14626 whole entry): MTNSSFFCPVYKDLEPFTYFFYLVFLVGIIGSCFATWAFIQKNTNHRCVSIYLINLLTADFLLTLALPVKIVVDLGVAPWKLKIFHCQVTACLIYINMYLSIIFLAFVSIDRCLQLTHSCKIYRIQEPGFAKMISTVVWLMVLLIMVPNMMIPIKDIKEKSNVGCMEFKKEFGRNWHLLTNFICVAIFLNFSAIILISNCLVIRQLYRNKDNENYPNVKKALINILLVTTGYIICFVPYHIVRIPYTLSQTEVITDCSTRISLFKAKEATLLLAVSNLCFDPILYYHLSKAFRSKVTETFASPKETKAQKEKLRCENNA

[36] = biological target: C-C chemokine receptor type 10 (Homo sapiens) (UniProt P46092); assay: RLU of CCR10 at 1.0 µM in the […] PRESTO-Tango GPCRome screen

Sequence of Probable G-protein coupled receptor 27 (Homo sapiens) (Q9NS67 whole entry): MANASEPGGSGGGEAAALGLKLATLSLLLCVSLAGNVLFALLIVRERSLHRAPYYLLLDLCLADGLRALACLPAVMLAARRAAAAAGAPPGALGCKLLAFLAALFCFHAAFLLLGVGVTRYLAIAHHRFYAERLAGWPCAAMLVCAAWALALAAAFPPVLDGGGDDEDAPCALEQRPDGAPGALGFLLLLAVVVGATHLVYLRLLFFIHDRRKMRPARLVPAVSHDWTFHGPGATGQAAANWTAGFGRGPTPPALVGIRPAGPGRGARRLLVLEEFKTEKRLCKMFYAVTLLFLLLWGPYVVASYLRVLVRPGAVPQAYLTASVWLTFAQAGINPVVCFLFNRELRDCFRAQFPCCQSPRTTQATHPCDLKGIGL
Sequence of Growth hormone secretagogue receptor type 1 (Homo sapiens) (Q92847 whole entry): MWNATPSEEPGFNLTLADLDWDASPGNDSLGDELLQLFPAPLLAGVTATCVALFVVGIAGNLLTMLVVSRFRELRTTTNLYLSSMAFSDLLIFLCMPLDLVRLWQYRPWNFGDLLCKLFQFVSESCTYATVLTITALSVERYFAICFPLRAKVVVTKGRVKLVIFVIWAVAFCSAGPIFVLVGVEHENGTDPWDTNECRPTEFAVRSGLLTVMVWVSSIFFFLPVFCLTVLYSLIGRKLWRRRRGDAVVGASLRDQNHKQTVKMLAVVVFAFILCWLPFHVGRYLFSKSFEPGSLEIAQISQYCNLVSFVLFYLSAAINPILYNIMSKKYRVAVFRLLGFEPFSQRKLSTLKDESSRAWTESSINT

SMILES: CCCCC(=O)N1CC2(C1)CN(c1ccccc1-c1nnn[nH]1)C2
- RLU [1]: -2080
- RLU [2]: 1260
- RLU [3]: 77.2
- RLU [4]: -114
- RLU [5]: 937
- RLU [6]: -570
- RLU [7]: -163
- RLU [8]: -2870
- RLU [9]: -116
- RLU [10]: -158
- RLU [11]: 1000
- RLU [12]: -511
- RLU [13]: 6950
- RLU [14]: -479
- RLU [15]: -4860
- RLU [16]: -3270
- RLU [17]: 471
- RLU [18]: -12800
- RLU [19]: 4830
- RLU [20]: 2940
- RLU [21]: -668
- RLU [22]: -270
- RLU [23]: 13500
- RLU [24]: 598
- RLU [25]: -3990
- RLU [26]: -1780
- RLU [27]: 4140
- RLU [28]: 812
- RLU [29]: 4940
- RLU [30]: 917
- RLU [31]: -1000
- RLU [32]: 1530
- RLU [33]: 1070
- RLU [34]: -1130
- RLU [35]: -3250
- RLU [36]: 464
